In patent US6737383B1, “Herbicidal oxadiazolidines” (priority 1999, dated 2004):

Assays:
bedstraw = assay: Test B pre/postemergence bedstraw; format: in vivo, Galium aparine
Method in brief: (§1)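 Test chemicals in a non-phytotoxic solvent mixture with surfactant were sprayed preemergence onto planted seeds and postemergence onto plants 2 to 18 cm tall (1- to 4-leaf stage). After twelve to sixteen days in a greenhouse, injury was visually rated against untreated controls from 0 (no effect) to 10 (complete control).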

blackgrass = assay: Test B pre/postemergence blackgrass; format: in vivo, Alopecurus myosuroides
Method in brief: as §1

surinam grass = assay: Test B pre/postemergence surinam grass; format: in vivo, Brachiaria decumbens
Method in brief: as §1

cocklebur = assay: Test B pre/postemergence cocklebur; format: in vivo, Xanthium strumarium
Method in brief: as §1

corn = assay: Test B pre/postemergence corn; format: in vivo, Zea mays
Method in brief: as §1

crabgrass = assay: Test B pre/postemergence crabgrass; format: in vivo, Digitaria sanguinalis
Method in brief: as §1

giant foxtail = assay: Test B pre/postemergence giant foxtail; format: in vivo, Setaria faberii
Method in brief: as §1

morningglory = assay: Test B pre/postemergence morningglory; format: in vivo, Ipomoea hederacea
Method in brief: as §1

pigweed = assay: Test B pre/postemergence pigweed; format: in vivo, Amaranthus retroflexus
Method in brief: as §1

rape = assay: Test B pre/postemergence rape; format: in vivo, Brassica napus
Method in brief: as §1

soybean = assay: Test B pre/postemergence soybean; format: in vivo, Glycine max
Method in brief: as §1

sugar beet = assay: Test B pre/postemergence sugar beet; format: in vivo, Beta vulgaris
Method in brief: as §1

velvetleaf = assay: Test B pre/postemergence velvetleaf; format: in vivo, Abutilon theophrasti
Method in brief: as §1

wheat = assay: Test B pre/postemergence wheat; format: in vivo, Triticum aestivum
Method in brief: as §1

wild oat = assay: Test B pre/postemergence wild oat; format: in vivo, Avena fatua
Method in brief: as §1

purple nutsedge = assay: Test B pre/postemergence purple nutsedge; format: in vivo, Cyperus rotundus
Method in brief: as §1

[1] = Postemergence, Rate 62 g/ha, scale 0 to 10, 0 is no effect, 10 is complete control
[2] = Postemergence, Rate 125 g/ha, scale of 0 to 10 where 0 is no effect and 10 is complete control
[3] = Postemergence, Rate 500 g/ha, scale 0 (no effect) to 10 (complete control)
[4] = Preemergence, Rate 250 g/ha, scale 0 (no effect) to 10 (complete control)
[5] = Rate 62 g/ha, Preemergence, scale 0 to 10
[6] = Rate 125 g/ha, Preemergence, scale 0 to 10 (0 no effect, 10 complete control)
[7] = Rate 250 g/ha, Postemergence, scale 0 to 10, 0 is no effect, 10 is complete control
[8] = Rate 500 g/ha, Preemergence, scale 0 to 10 (0 no effect, 10 complete control)

CCOC(CC)n1c(=O)on(C(=O)N(c2ccc(F)cc2F)C(C)C)c1=O (stereo not drawn) [Compound 774]
0: Plant response rating, Bedstraw (bedstraw; [1]) | Bedstraw plant response rating (bedstraw; [2]) | Bedstraw plant response rating (bedstraw; [3]) | Bedstraw plant response rating (bedstraw; [4]) | Bedstraw plant response rating (bedstraw; [5]) | Bedstraw plant response rating (bedstraw; [6]) | Bedstraw plant response rating (bedstraw; [7]) | Bedstraw plant response rating (bedstraw; [8]) | Plant response rating, Blackgrass (blackgrass; [1]) | Blackgrass plant response rating (blackgrass; [2]) | Blackgrass plant response rating (blackgrass; [3]) | Blackgrass plant response rating (blackgrass; [4]) | Blackgrass plant response rating (blackgrass; [5]) | Blackgrass plant response rating (blackgrass; [6]) | Blackgrass plant response rating (blackgrass; [7]) | Blackgrass plant response rating (blackgrass; [8]) | Plant response rating, B. signalgrass (surinam grass; [1]) | B. signalgrass plant response rating (surinam grass; [2]) | B. signalgrass plant response rating (surinam grass; [4]) | B. signalgrass plant response rating (surinam grass; Rate 62 g/ha, Preemergence, scale 0 (no effect) to 10 (complete control)) | B. signalgrass plant response rating (surinam grass; [6]) | B. signalgrass plant response rating (surinam grass; [7]) | B. signalgrass plant response rating (surinam grass; Rate 500 g/ha, Postemergence, scale 0 to 10, 0 is no effect, 10 is complete control) | B. signalgrass plant response rating (surinam grass; [8]) | Plant response rating, Cocklebur (cocklebur; [1]) | Cocklebur plant response rating (cocklebur; [2]) | Cocklebur plant response rating (cocklebur; [3]) | Cocklebur plant response rating (cocklebur; [4]) | Cocklebur plant response rating (cocklebur; [5]) | Cocklebur plant response rating (cocklebur; [6]) | Cocklebur plant response rating (cocklebur; [7]) | Cocklebur plant response rating (cocklebur; [8]) | Plant response rating, Corn (corn; [1]) | Corn plant response rating (corn; [2]) | Corn plant response rating (corn; [3]) | Corn plant response rating (corn; [4]) | Corn plant response rating (corn; [5]) | Corn plant response rating (corn; [6]) | Corn plant response rating (corn; [7]) | Corn plant response rating (corn; [8]) | Plant response rating, Crabgrass (crabgrass; [1]) | Crabgrass plant response rating (crabgrass; [2]) | Crabgrass plant response rating (crabgrass; [3]) | Crabgrass plant response rating (crabgrass; [4]) | Crabgrass plant response rating (crabgrass; [5]) | Crabgrass plant response rating (crabgrass; [6]) | Crabgrass plant response rating (crabgrass; [7]) | Crabgrass plant response rating (crabgrass; [8]) | Plant response rating, Giant foxtail (giant foxtail; [1]) | Giant foxtail plant response rating (giant foxtail; [2]) | Giant foxtail plant response rating (giant foxtail; [3]) | Giant foxtail plant response rating (giant foxtail; [4]) | Giant foxtail plant response rating (giant foxtail; [5]) | Giant foxtail plant response rating (giant foxtail; [6]) | Giant foxtail plant response rating (giant foxtail; [7]) | Giant foxtail plant response rating (giant foxtail; [8]) | Plant response rating, Morningglory (morningglory; [1]) | Morningglory plant response rating (morningglory; [2]) | Morningglory plant response rating (morningglory; [3]) | Morningglory plant response rating (morningglory; [5]) | Morningglory plant response rating (morningglory; [6]) | Morningglory plant response rating (morningglory; [7]) | Morningglory plant response rating (morningglory; [8]) | Plant response rating, Redroot pigweed (pigweed; [1]) | Redroot pigweed plant response rating (pigweed; [2]) | Redroot pigweed plant response rating (pigweed; [3]) | Redroot pigweed plant response rating (pigweed; [5]) | Redroot pigweed plant response rating (pigweed; [6]) | Redroot pigweed plant response rating (pigweed; [7]) | Redroot pigweed plant response rating (pigweed; [8]) | Plant response rating, Rape (rape; [1]) | Rape plant response rating (rape; [2]) | Rape plant response rating (rape; [3]) | Rape plant response rating (rape; [5]) | Rape plant response rating (rape; [6]) | Rape plant response rating (rape; [7]) | Rape plant response rating (rape; [8]) | Plant response rating, Soybean (soybean; [1]) | Soybean plant response rating (soybean; [3]) | Soybean plant response rating (soybean; [5]) | Soybean plant response rating (soybean; [6]) | Soybean plant response rating (soybean; [7]) | Soybean plant response rating (soybean; [8]) | Plant response rating, Sugarbeets (sugar beet; [1]) | Sugarbeets plant response rating (sugar beet; [3]) | Sugarbeets plant response rating (sugar beet; [5]) | Sugarbeets plant response rating (sugar beet; [6]) | Sugarbeets plant response rating (sugar beet; [7]) | Sugarbeets plant response rating (sugar beet; [8]) | Plant response rating, Velvetleaf (velvetleaf; [1]) | Velvetleaf plant response rating (velvetleaf; [3]) | Velvetleaf plant response rating (velvetleaf; [5]) | Velvetleaf plant response rating (velvetleaf; [6]) | Velvetleaf plant response rating (velvetleaf; [7]) | Velvetleaf plant response rating (velvetleaf; [8]) | Plant response rating, Wheat (wheat; [1]) | Wheat plant response rating (wheat; [3]) | Wheat plant response rating (wheat; [5]) | Wheat plant response rating (wheat; [6]) | Wheat plant response rating (wheat; [7]) | Wheat plant response rating (wheat; [8]) | Plant response rating, Wild oats (wild oat; [1]) | Wild oats plant response rating (wild oat; [3]) | Wild oats plant response rating (wild oat; [5]) | Wild oats plant response rating (wild oat; [6]) | Wild oats plant response rating (wild oat; [7]) | Wild oats plant response rating (wild oat; [8]) | Plant response rating, Nutsedge (purple nutsedge; [1]) | Nutsedge plant response rating (purple nutsedge; [2]) | Nutsedge plant response rating (purple nutsedge; [3]) | Nutsedge plant response rating (purple nutsedge; [5]) | Nutsedge plant response rating (purple nutsedge; [6]) | Nutsedge plant response rating (purple nutsedge; [7]) | Nutsedge plant response rating (purple nutsedge; [8])
